# From PubChem BioAssay AID1963827 (Molecular Pharmacology Branch, DTP, NCI, 2024)
# pIC50: −log10 of the molar value.
# System: 994946-033-R-J1-PDC complex spheroid viability
# Assay: Anticancer human tumor 994946-033-R-J1-PDC patient-derived melanoma cell line growth inhibition [POLQ]
# Settings: for pIC50: curve of first compound; for viability, T/C: stronger effect = lower value
# Summary of the method: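 Growth inhibition in 3D: complex spheroids (tumor PDC, HUVEC, MSC) treated with POLQ inhibitor combinations; where Cmax unknown, highest tested concentration 10 microM, except SN-38 at 1 microM.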
# [1] = second compound 0.0316 µM, first compound 0.0316 µM
# [2] = second compound 0.0316 µM, first compound 0.1 µM
# [3] = second compound 0.0316 µM, first compound 0.316 µM
# [4] = second compound 0.0316 µM, first compound 1 µM
# [5] = second compound 0.0316 µM, first compound 3.16 µM
# [6] = second compound 0.0316 µM, first compound 10 µM
# [7] = second compound 0.1 µM, first compound 0.0316 µM
# [8] = second compound 0.1 µM, first compound 0.1 µM
# [9] = second compound 0.1 µM, first compound 0.316 µM
# [10] = second compound 0.1 µM, first compound 1 µM
# [11] = second compound 0.1 µM, first compound 3.16 µM
# [12] = second compound 0.1 µM, first compound 10 µM
# [13] = second compound 0.316 µM, first compound 0.0316 µM
# [14] = second compound 0.316 µM, first compound 0.1 µM
# [15] = second compound 0.316 µM, first compound 0.316 µM
# [16] = second compound 0.316 µM, first compound 1 µM
# [17] = second compound 0.316 µM, first compound 3.16 µM
# [18] = second compound 0.316 µM, first compound 10 µM
# [19] = second compound 1 µM, first compound 0.0316 µM
# [20] = second compound 1 µM, first compound 0.1 µM
# [21] = second compound 1 µM, first compound 0.316 µM
# [22] = second compound 1 µM, first compound 1 µM
# [23] = second compound 1 µM, first compound 3.16 µM
# [24] = second compound 1 µM, first compound 10 µM
# [25] = second compound 3.16 µM, first compound 0.0316 µM
# [26] = second compound 3.16 µM, first compound 0.1 µM
# [27] = second compound 3.16 µM, first compound 0.316 µM
# [28] = second compound 3.16 µM, first compound 1 µM
# [29] = second compound 3.16 µM, first compound 3.16 µM
# [30] = second compound 3.16 µM, first compound 10 µM
# [31] = second compound 10 µM, first compound 0.0316 µM
# [32] = second compound 10 µM, first compound 0.1 µM
# [33] = second compound 10 µM, first compound 0.316 µM
# [34] = second compound 10 µM, first compound 1 µM
# [35] = second compound 10 µM, first compound 3.16 µM
# [36] = second compound 10 µM, first compound 10 µM
# 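Note: spheroids exposed to drugs for 7 days.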
# 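Throughout, for viability, T/C: 100% = DMSO vehicle treated spheroids.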
structure (smiles),measurement,setting,value
CCc1cc2c(N3CCc4c(cc(Cn5ccnc5)cc4-c4cn(C)nc4C(F)(F)F)C3=O)cc(C)nc2c(OC)n1 + COC1C(OC(N)=O)C(O)C(Oc2ccc3c(O)c(NC(=O)c4ccc(O)c(CC=C(C)C)c4)c(=O)oc3c2C)OC1(C)C,pIC50,second compound 0.0316 µM,< 5.00
same,pIC50,second compound 0.1 µM,< 5.00
same,pIC50,second compound 0.316 µM,< 5.00
same,pIC50,second compound 1 µM,< 5.00
same,pIC50,second compound 3.16 µM,< 5.00
same,pIC50,second compound 10 µM,< 5.00
same,"viability, T/C",[1],105%
same,"viability, T/C",[2],86.1%
same,"viability, T/C",[3],89.6%
same,"viability, T/C",[4],83%
same,"viability, T/C",[5],73.4%
same,"viability, T/C",[6],64%
same,"viability, T/C",[7],83.5%
same,"viability, T/C",[8],71.5%
same,"viability, T/C",[9],75.1%
same,"viability, T/C",[10],86.9%
same,"viability, T/C",[11],83.2%
same,"viability, T/C",[12],75.1%
same,"viability, T/C",[13],111%
same,"viability, T/C",[14],90.2%
same,"viability, T/C",[15],86.1%
same,"viability, T/C",[16],51.9%
same,"viability, T/C",[17],54%
same,"viability, T/C",[18],70.5%
same,"viability, T/C",[19],100%
same,"viability, T/C",[20],71.3%
same,"viability, T/C",[21],86.9%
same,"viability, T/C",[22],82.2%
same,"viability, T/C",[23],88.9%
same,"viability, T/C",[24],91%
same,"viability, T/C",[25],66%
same,"viability, T/C",[26],100%
same,"viability, T/C",[27],80.8%
same,"viability, T/C",[28],78.2%
same,"viability, T/C",[29],73.1%
same,"viability, T/C",[30],63.8%
same,"viability, T/C",[31],68.1%
same,"viability, T/C",[32],93.4%
same,"viability, T/C",[33],64.6%
same,"viability, T/C",[34],82.2%
same,"viability, T/C",[35],51.1%
same,"viability, T/C",[36],69.9%
C=CC(=O)N1CCN(c2nc(=O)n(-c3c(C)ccnc3C(C)C)c3nc(-c4c(O)cccc4F)c(F)cc23)C(C)C1 (stereo not drawn) + COC1C(OC(N)=O)C(O)C(Oc2ccc3c(O)c(NC(=O)c4ccc(O)c(CC=C(C)C)c4)c(=O)oc3c2C)OC1(C)C,pIC50,second compound 0.0316 µM,< 5.00
same,pIC50,second compound 0.1 µM,< 5.00
same,pIC50,second compound 0.316 µM,< 5.00
same,pIC50,second compound 1 µM,< 5.00
same,pIC50,second compound 3.16 µM,< 5.00
same,pIC50,second compound 10 µM,< 5.00
same,"viability, T/C",[1],80.4%
same,"viability, T/C",[2],110%
same,"viability, T/C",[3],104%
same,"viability, T/C",[4],101%
same,"viability, T/C",[5],104%
same,"viability, T/C",[6],95.5%
same,"viability, T/C",[7],102%
same,"viability, T/C",[8],105%
same,"viability, T/C",[9],87.5%
same,"viability, T/C",[10],99.5%
same,"viability, T/C",[11],90.8%
same,"viability, T/C",[12],114%
same,"viability, T/C",[13],92.8%
same,"viability, T/C",[14],111%
same,"viability, T/C",[15],119%
same,"viability, T/C",[16],99%
same,"viability, T/C",[17],138%
same,"viability, T/C",[18],104%
same,"viability, T/C",[19],112%
same,"viability, T/C",[20],93.5%
same,"viability, T/C",[21],118%
same,"viability, T/C",[22],85.9%
same,"viability, T/C",[23],112%
same,"viability, T/C",[24],75.7%
same,"viability, T/C",[25],94%
same,"viability, T/C",[26],108%
same,"viability, T/C",[27],113%
same,"viability, T/C",[28],105%
same,"viability, T/C",[29],93.3%
same,"viability, T/C",[30],115%
same,"viability, T/C",[31],98.1%
same,"viability, T/C",[32],81.7%
same,"viability, T/C",[33],99.9%
same,"viability, T/C",[34],124%
same,"viability, T/C",[35],86.9%
same,"viability, T/C",[36],105%
Nc1ccn(C2OC(CO)C(O)C2(F)F)c(=O)n1 (stereo not drawn) + Nc1ccc(C#CCN(C(=O)Cc2ncc(C(F)(F)F)cc2C(F)(F)F)c2ccc(F)cc2)nn1,pIC50,second compound 0.0316 µM,> 7.50
same,pIC50,second compound 0.1 µM,> 7.50
same,pIC50,second compound 0.316 µM,> 7.50
same,pIC50,second compound 1 µM,> 7.50
same,pIC50,second compound 3.16 µM,7.45
same,pIC50,second compound 10 µM,6.92
same,"viability, T/C",[1],19.8%
same,"viability, T/C",[2],9.8%
same,"viability, T/C",[3],13.9%
same,"viability, T/C",[4],6.8%
same,"viability, T/C",[5],9.12%
same,"viability, T/C",[6],4.73%
same,"viability, T/C",[7],13.4%
same,"viability, T/C",[8],6.85%
same,"viability, T/C",[9],7.22%
same,"viability, T/C",[10],8.61%
same,"viability, T/C",[11],6.71%
same,"viability, T/C",[12],2.46%
same,"viability, T/C",[13],26.9%
same,"viability, T/C",[14],10.2%
same,"viability, T/C",[15],6.41%
same,"viability, T/C",[16],6.86%
same,"viability, T/C",[17],5.84%
same,"viability, T/C",[18],3.65%
same,"viability, T/C",[19],49.5%
same,"viability, T/C",[20],11.8%
same,"viability, T/C",[21],7.84%
same,"viability, T/C",[22],6.62%
same,"viability, T/C",[23],5.64%
same,"viability, T/C",[24],2.7%
same,"viability, T/C",[25],53.2%
same,"viability, T/C",[26],22.4%
same,"viability, T/C",[27],8.85%
same,"viability, T/C",[28],9.68%
same,"viability, T/C",[29],8.92%
same,"viability, T/C",[30],3.34%
same,"viability, T/C",[31],75.5%
same,"viability, T/C",[32],56.2%
same,"viability, T/C",[33],17.5%
same,"viability, T/C",[34],7.83%
same,"viability, T/C",[35],11.2%
same,"viability, T/C",[36],6.31%
COc1cc(C2c3cc4c(cc3C(OC3OC5COC(C)OC5C(O)C3O)C3COC(=O)C23)OCO4)cc(OC)c1O (stereo not drawn) + Nc1ccc(C#CCN(C(=O)Cc2ncc(C(F)(F)F)cc2C(F)(F)F)c2ccc(F)cc2)nn1,pIC50,second compound 0.0316 µM,6.14
same,pIC50,second compound 0.1 µM,6.46
same,pIC50,second compound 0.316 µM,6.44
same,pIC50,second compound 1 µM,6.40
same,pIC50,second compound 3.16 µM,6.43
same,pIC50,second compound 10 µM,6.06
same,"viability, T/C",[1],70.3%
same,"viability, T/C",[2],67.4%
same,"viability, T/C",[3],68.8%
same,"viability, T/C",[4],42%
same,"viability, T/C",[5],19.9%
same,"viability, T/C",[6],8.78%
same,"viability, T/C",[7],86.1%
same,"viability, T/C",[8],73.3%
same,"viability, T/C",[9],42.3%
same,"viability, T/C",[10],43%
same,"viability, T/C",[11],16.5%
same,"viability, T/C",[12],6.05%
same,"viability, T/C",[13],87.1%
same,"viability, T/C",[14],69.9%
same,"viability, T/C",[15],54%
same,"viability, T/C",[16],32.4%
same,"viability, T/C",[17],20.6%
same,"viability, T/C",[18],9.78%
same,"viability, T/C",[19],111%
same,"viability, T/C",[20],77%
same,"viability, T/C",[21],55.1%
same,"viability, T/C",[22],35.4%
same,"viability, T/C",[23],17.9%
same,"viability, T/C",[24],10.3%
same,"viability, T/C",[25],84.8%
same,"viability, T/C",[26],70.5%
same,"viability, T/C",[27],48%
same,"viability, T/C",[28],41.3%
same,"viability, T/C",[29],15.3%
same,"viability, T/C",[30],5.78%
same,"viability, T/C",[31],77.2%
same,"viability, T/C",[32],70.4%
same,"viability, T/C",[33],58.7%
same,"viability, T/C",[34],53.3%
same,"viability, T/C",[35],14.5%
same,"viability, T/C",[36],7.34%
